Legend:
[1] = system: MDA-MB-231, human mammary gland (epithelial) adenocarcinoma, estrogen receptor negative; assay: Cell killing in MDA-MB-231; format: cell-based; settings: for effectiveness of compositions comprising another dithiocarbonyl compared with PDC: same conditions as the PDC compositions
Experimental: (§1) To determine the effects of the present compositions, cells were grown in the indicated medium in either 12-well plates (to assess morphological changes and measure DNA synthesis); 6-well plates (for determination of apoptosis/necrosis); or 96-well plates (for determination of cellular proliferation by the MTT assay). All media contained 10% fetal bovine serum. In each experiment, the medium was replaced with fresh medium at 2 h. prior to treatment. Treatments were performed with sterile solutions of the compositions (made up either in the respective medium or water) for 1 min.-72 h. In some cases, treatments were done for 1 min., followed by incubation of washed cells for various time periods.
(§2) Cells were cultured in Leibovitz's L-15 cell culture medium (Gibco) and 10% fetal bovine serum; the medium was changed 6 h. prior to treatment. […] For DNA synthesis experiments, cells were incubated with [^3H]-thymidine (1 μCi/ml) between 40-50 mins. of treatment; for cell proliferation experiments, cells were trypsinized after treatment, re-plated, and viable cells counted 1 week later.

[2] = system: MDA-MB-468, human mammary gland (epithelial) adenocarcinoma, estrogen receptor negative; assay: Cell killing in MDA-MB-468; format: cell-based; settings: in the above experiments
Experimental: as §1
as §2, with “L-15” for “L-15 cell culture”, “medium” for “medium (Gibco)”, “120-130” for “40-50”

[3] = system: MCF-7, human breast carcinoma cells, estrogen receptor positive; assay: Cell killing in MCF-7; format: cell-based; settings: in the above experiments
Experimental: as §1
Cells were cultured in Dulbecco's modified Eagle's medium containing 2 mM L-glutamine and 10% fetal calf serum; the medium was changed 2 h prior to treatments. […] For DNA synthesis experiments, cells were incubated with [^3H]-thymidine ([…]) between 120-130 min of treatment; for cell proliferation experiments, cells were trypsinized after treatment, re-plated, and viable cells counted 1 week later.

[4] = system: ZR-75-1, human mammary gland (epithelial) ductal carcinoma, ascites, estrogen receptor positive; assay: Cell killing in ZR-75-1; format: cell-based
Experimental: as §1
ZR-75-1, human mammary gland (epithelial) ductal carcinoma, ascites, estrogen receptor positive. Cells were cultured in modified RPMI 1640 medium with 2 mM L-glutamine, 10 mM Hepes, 1 mM sodium pyruvate, 4.5 g/L glucose, 1.5 g/L sodium bicarbonate, 0.2 I.U. bovine insulin/ml, and 10% fetal bovine serum; the medium was changed 6 h. prior to treatment. […] For DNA synthesis experiments, cells were incubated with [^3H]-thymidine (1 μCi/ml) between 120-130 mins. of treatment; for cell proliferation experiments, cells were trypsinized after treatment, re-plated, and viable cells counted 1 week later.

[5] = system: T-47D, human mammary gland (epithelial) ductal carcinoma, estrogen receptor positive; assay: Cell killing in T-47D; format: cell-based
Experimental: as §1
Cells were cultured in modified RPMI 1640 cell culture medium (see Gibco Catalogue), with 2 mM L-glutamine, 10 mM Hepes, 1 mM sodium pyruvate, 4.5 g/L glucose, 1.5 g/L sodium bicarbonate, 0.2 I.U. bovine insulin/ml, and 10% fetal bovine serum; the medium was changed 6 h. prior to treatment. […] For DNA synthesis experiments, cells were incubated with [^3H]-thymidine (1 μCi/ml) between 120-130 mins. of treatment; for cell proliferation experiments, cells were trypsinized after treatment, replated, and viable cells counted 1 week later.

[6] = system: T-47D, 2R-75-1, A431, MDA-MB-231, AN3Ca, CaOV3; assay: Proliferation of cancer cell lines; format: cell-based
normal cells = assay: Proliferation of normal cells; format: cell-based
BDF1 adult female mice = assay: In vivo acute toxicological investigation, intraperitoneal; settings: alone, 0.5-2 mM in physiological saline, followed 21 days
Experimental: Specified pathogen free (SPF) hygienic category first generation hybrid BDF1 (C57B1 female×DBA/2 male) adult female mice weighing 22-23 g were used. The animals were kept in macrolon cages at 22-24 C (45-55% humidity), with a lighting regimen of 12/12 h light/dark.
The animals were followed for 21 days and evaluated based on survival and body weight. Seven animals were evaluated for each treatment.

[7] = components at 50 μM PDC, 120 μM Zn, 100 μM EA, 3 mM DMETN, 2 h

S=C(S)OC1CC2CC1C1CCCC21 (stereo not shown) [Composition D609]
effectiveness of compositions comprising another dithiocarbonyl compared with PDC [1]: as effective as compositions comprising PDC | effectiveness of compositions comprising another dithiocarbonyl compared with PDC [2]: as effective as those comprising PDC | effectiveness of compositions comprising another dithiocarbonyl compared with PDC [3]: as effective as those comprising PDC | effectiveness of compositions comprising another dithiocarbonyl compared with PDC ([4]; in the above experiments): as effective as those comprising PDC | effectiveness of compositions comprising another dithiocarbonyl compared with PDC ([5]; in the above experiments): as effective as those comprising PDC

CN(C)CCO [DMETN, dimethylethanolamine]
proliferation of cancer cell lines [6]: inhibits proliferation | proliferation of normal cells (normal cells): generally increasing proliferation

C=C(CC)C(=O)c1ccc(OCC(=O)O)c(Cl)c1Cl [EA, ethacrynic acid]
acute toxicity (survival and body weight) (BDF1 adult female mice): not toxic | cells killed ([1]; 60 μM EA alone, after 3 h): about 100% | cells killed ([1]; components at 25 μM PDC, 60 μM Zn, 60 μM EA, 3 mM DMETN, 40 min): about 70% | cells killed [4, 7]: about 100% | cells killed [5, 7]: about 100%

CCN(CC)C(=S)SSC(=S)N(CC)CC [disulfuram, tetraethylthiuram disulfide]
effectiveness of compositions comprising another dithiocarbonyl compared with PDC [1]: as effective as compositions comprising PDC

— patent publication US6756063B2, “Methods and compositions for the treatment of human and animal cancers” (Zoltan Laboratories, LLC, priority 2001, dated 2004)
